Laboratory results published in ChEMBL document CHEMBL1201862, “PubChem BioAssay data set” (2004).
Active and inactive are the calls of the source.

Assays:
[1] = molecular target: T1, Heat shock factor protein 1 (Mus musculus, UniProt P38532); test: decrease of HSF1-responsive luciferase luminescence – cell-based, NIH3T3, dose retest, confirmation (AID 2382); type: functional;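 also: NIH3T3 fibroblasts with HSF1-driven luciferase reporter stressed by proteasome inhibitor MG132; luminescence from HSF1-driven luciferase expression after 8 hours of MG132 stress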
T1 sequence (P38532 whole entry): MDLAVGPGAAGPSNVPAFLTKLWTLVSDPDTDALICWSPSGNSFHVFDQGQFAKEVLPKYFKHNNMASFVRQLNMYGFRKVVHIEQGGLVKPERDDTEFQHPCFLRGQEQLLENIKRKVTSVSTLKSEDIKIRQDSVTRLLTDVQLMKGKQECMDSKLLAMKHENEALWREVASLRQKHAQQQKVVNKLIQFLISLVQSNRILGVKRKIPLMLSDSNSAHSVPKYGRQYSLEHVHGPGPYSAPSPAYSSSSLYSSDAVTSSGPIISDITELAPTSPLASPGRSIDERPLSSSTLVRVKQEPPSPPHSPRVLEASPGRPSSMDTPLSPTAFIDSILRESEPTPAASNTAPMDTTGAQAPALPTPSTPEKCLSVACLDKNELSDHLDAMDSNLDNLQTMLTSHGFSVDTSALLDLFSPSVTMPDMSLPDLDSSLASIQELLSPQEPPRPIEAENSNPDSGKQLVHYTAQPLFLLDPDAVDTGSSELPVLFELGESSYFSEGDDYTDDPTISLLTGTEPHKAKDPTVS

fMet-Leu-Phe receptor = molecular target: T2, fMet-Leu-Phe receptor (Homo sapiens, UniProt P21462); test: formyl peptide receptor binders – dose response (AID 519); type: functional
T2 sequence (P21462 whole entry): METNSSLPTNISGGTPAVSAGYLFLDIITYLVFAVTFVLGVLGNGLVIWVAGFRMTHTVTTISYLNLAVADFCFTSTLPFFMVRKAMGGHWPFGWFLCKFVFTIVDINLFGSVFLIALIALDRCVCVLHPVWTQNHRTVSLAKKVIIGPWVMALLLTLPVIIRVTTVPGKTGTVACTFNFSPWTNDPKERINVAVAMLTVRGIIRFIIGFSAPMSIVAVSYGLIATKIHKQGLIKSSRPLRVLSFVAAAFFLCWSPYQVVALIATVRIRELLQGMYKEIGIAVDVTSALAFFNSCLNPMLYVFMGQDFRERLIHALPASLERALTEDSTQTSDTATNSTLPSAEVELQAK

Cytochrome P450 2D6 = Cytochrome P450 2D6 (Homo sapiens, UniProt P10635);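 also: CYP2D6 member of a cytochrome P450 panel assay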
Cytochrome P450 2C9 = Cytochrome P450 2C9 (Homo sapiens, UniProt P11712)
Large T antigen = Large T antigen (Simian virus 40, UniProt P03070); type: functional, Betapolyomavirus macacae;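 also: Confirmatory-stage PubChem screen for compounds that inhibit SV40 T antigen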
[2] = molecular target: T3, Voltage-gated N-type calcium channel alpha-1B subunit/Amyloid beta A4 precursor protein-binding family A member 1 (Homo sapiens, UniProt Q00975+Q02410); type: protein assay
[3] = molecular target: T3, Voltage-gated N-type calcium channel alpha-1B subunit/Amyloid beta A4 precursor protein-binding family A member 1; type: protein assay; remark: listed apart in the source
[4] = molecular target: T4, Short transient receptor potential channel 4 (Mus musculus, UniProt Q9QUQ5); test: block of DAMGO-driven TRPC4 calcium entry – cell-based, HEK293 TRPC4/mu-opioid, Fluo-4 calcium, dose response (AID 434942); type: functional;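 also: potency of inhibitors blocking the TRPC4 calcium response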
T4 sequence (Q9QUQ5 whole entry): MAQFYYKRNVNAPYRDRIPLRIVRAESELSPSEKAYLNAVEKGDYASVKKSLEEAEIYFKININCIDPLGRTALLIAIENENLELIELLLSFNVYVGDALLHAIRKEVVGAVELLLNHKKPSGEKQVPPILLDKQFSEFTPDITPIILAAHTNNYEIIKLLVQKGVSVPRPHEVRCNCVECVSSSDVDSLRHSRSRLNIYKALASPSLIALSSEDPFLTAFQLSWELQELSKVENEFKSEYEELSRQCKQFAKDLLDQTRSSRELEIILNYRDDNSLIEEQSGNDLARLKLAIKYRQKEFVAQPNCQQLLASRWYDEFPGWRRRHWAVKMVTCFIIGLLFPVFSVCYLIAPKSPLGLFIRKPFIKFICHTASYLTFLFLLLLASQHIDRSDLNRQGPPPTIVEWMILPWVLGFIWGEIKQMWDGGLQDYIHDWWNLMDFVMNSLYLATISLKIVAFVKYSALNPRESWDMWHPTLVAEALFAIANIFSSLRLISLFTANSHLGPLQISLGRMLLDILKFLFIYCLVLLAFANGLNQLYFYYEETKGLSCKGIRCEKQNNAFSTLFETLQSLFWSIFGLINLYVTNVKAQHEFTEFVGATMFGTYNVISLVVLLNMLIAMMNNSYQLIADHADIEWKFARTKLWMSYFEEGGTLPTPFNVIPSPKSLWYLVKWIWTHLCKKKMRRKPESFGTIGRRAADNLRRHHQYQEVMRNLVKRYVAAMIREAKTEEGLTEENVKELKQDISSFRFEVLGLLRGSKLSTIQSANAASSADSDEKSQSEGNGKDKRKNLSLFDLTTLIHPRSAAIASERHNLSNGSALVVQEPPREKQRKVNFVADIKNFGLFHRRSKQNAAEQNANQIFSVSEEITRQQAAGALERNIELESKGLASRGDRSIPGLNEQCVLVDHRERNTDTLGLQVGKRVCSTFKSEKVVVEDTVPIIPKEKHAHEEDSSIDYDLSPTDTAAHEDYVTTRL

[5] = P. falciparum Dd2 growth inhibitors, dose response, SYBR Green, cherry-picked samples (AID 1159567); type: functional, cell-based
cells [6] = type: functional
BJ [7] = test: BJ-TERT fibroblast viability loss – cell-based, RAS-independent, luminescence, dose response (AID 1933); type: functional; conditions: Homo sapiens
[8] = DRD fibroblast viability loss – cell-based, non-viral oncogenic, luminescence, dose response (AID 1934); type: functional; conditions: Homo sapiens
[9] = Luminescence Cell-Based Dose Response HTS to Identify Inhibitors of 5'UTR Stem-Loop Driven Prion Protein mRNA Translation in H4 Neuroglioblastoma Cells. [Related pubchem assays: 1827 (Project Summary), 1813 (Primary HTS)]; type: functional
[10] = HEK-293T viability loss after treatment – luminescence, T-cell screen hits, cytotoxicity control for TCR NF-kB inhibitor project, dose response (AID 489026); type: functional, cell-based;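 also: cells exposed to compound about 14 hours before the viability readout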
BJ [11] = test: BJ-TERT-LT-ST fibroblast viability loss – cell-based, RAS-independent, luminescence, dose response (AID 1935); type: functional; conditions: Homo sapiens;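 also: BJ fibroblasts immortalized with TERT plus LT and ST oncogenes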
[12] = luciferase reporter signal suppression in cells – H4 neuroglioma cells, luminescence, dose response (AID 1990); type: functional, cell-based
BJ [13] = test: cells; type: functional, cell-based; conditions: Homo sapiens
[14] = alpha-synuclein stem-loop luciferase translation blockers – H4 neuroglioma cells, luminescence, confirmation (AID 1988); type: functional, cell-based
Cytochrome P450 2C19 = Cytochrome P450 2C19 (Homo sapiens, UniProt P33261); test: Cytochrome panel assay with activity outcomes. Panel member name: p450-cyp2c19 Compounds with AC50 equal or less than 10 uM are considered active; type: functional; conditions: read-out: AC50
P388 = test: cells; type: functional; conditions: Mus musculus
SN12K1 = test: cells; type: functional; conditions: Homo sapiens
P388/ADR = test: cells; type: functional; conditions: Mus musculus
INS1 = test: INS-1E survival protection against cytokine death – cell-based, luminescence, retest, dose response (AID 449756); type: functional; conditions: Rattus norvegicus;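 also: cell death triggered by IL-1 beta plus TNF-alpha plus IFN-gamma mixture; protective hits raise ATP signal compared with cytokine alone wells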
[15] = non-specific 3'UTR reporter inhibition in Clone20-Shn3RL – cell-based, Renilla luciferase, cherry-picked, counter-screen for Shn3 inhibitor project, dose response (AID 624133); type: functional
[16] = reduction of Shn3 3'UTR-driven luciferase in osteoblasts – cell-based, Clone20 osteoblasts, firefly luciferase, cherry-picked, dose response (AID 624132); type: functional;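 also: firefly luciferase luminescence from reporter carrying the Shn3 3'UTR in osteoblasts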
[17] = loss of viability in HepG2 cells – cell-based, CellTiter-Glo, cherry-picked, cytotoxicity control for Shn3 inhibitor project, dose response (AID 624134); type: functional
cells [18] = type: functional, cell-based
cells [19] = type: functional, cell-based; remark: listed apart in the source
[20] = molecular target: Induced myeloid leukemia cell differentiation protein Mcl-1 (Homo sapiens, UniProt Q07820); type: functional
Streptococcus = test: GAS UMAA2166 growth inhibition – luminescence, BacTiterGlo, counter-screen for streptokinase expression inhibitor project, dose response (AID 1915); type: functional, organism-based;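 also: potency for reduction of bacterial viability or growth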
[21] = system: Streptococcus sp. 'group A'; test: Streptococcus pyogenes SK(-)GAS viability under kanamycin – luminescence, BacTiterGlo, confirmation, counter-screen for streptokinase expression inhibitor project, dose response (AID 1900); type: functional, organism-based

T3 sequence (Q00975 whole entry): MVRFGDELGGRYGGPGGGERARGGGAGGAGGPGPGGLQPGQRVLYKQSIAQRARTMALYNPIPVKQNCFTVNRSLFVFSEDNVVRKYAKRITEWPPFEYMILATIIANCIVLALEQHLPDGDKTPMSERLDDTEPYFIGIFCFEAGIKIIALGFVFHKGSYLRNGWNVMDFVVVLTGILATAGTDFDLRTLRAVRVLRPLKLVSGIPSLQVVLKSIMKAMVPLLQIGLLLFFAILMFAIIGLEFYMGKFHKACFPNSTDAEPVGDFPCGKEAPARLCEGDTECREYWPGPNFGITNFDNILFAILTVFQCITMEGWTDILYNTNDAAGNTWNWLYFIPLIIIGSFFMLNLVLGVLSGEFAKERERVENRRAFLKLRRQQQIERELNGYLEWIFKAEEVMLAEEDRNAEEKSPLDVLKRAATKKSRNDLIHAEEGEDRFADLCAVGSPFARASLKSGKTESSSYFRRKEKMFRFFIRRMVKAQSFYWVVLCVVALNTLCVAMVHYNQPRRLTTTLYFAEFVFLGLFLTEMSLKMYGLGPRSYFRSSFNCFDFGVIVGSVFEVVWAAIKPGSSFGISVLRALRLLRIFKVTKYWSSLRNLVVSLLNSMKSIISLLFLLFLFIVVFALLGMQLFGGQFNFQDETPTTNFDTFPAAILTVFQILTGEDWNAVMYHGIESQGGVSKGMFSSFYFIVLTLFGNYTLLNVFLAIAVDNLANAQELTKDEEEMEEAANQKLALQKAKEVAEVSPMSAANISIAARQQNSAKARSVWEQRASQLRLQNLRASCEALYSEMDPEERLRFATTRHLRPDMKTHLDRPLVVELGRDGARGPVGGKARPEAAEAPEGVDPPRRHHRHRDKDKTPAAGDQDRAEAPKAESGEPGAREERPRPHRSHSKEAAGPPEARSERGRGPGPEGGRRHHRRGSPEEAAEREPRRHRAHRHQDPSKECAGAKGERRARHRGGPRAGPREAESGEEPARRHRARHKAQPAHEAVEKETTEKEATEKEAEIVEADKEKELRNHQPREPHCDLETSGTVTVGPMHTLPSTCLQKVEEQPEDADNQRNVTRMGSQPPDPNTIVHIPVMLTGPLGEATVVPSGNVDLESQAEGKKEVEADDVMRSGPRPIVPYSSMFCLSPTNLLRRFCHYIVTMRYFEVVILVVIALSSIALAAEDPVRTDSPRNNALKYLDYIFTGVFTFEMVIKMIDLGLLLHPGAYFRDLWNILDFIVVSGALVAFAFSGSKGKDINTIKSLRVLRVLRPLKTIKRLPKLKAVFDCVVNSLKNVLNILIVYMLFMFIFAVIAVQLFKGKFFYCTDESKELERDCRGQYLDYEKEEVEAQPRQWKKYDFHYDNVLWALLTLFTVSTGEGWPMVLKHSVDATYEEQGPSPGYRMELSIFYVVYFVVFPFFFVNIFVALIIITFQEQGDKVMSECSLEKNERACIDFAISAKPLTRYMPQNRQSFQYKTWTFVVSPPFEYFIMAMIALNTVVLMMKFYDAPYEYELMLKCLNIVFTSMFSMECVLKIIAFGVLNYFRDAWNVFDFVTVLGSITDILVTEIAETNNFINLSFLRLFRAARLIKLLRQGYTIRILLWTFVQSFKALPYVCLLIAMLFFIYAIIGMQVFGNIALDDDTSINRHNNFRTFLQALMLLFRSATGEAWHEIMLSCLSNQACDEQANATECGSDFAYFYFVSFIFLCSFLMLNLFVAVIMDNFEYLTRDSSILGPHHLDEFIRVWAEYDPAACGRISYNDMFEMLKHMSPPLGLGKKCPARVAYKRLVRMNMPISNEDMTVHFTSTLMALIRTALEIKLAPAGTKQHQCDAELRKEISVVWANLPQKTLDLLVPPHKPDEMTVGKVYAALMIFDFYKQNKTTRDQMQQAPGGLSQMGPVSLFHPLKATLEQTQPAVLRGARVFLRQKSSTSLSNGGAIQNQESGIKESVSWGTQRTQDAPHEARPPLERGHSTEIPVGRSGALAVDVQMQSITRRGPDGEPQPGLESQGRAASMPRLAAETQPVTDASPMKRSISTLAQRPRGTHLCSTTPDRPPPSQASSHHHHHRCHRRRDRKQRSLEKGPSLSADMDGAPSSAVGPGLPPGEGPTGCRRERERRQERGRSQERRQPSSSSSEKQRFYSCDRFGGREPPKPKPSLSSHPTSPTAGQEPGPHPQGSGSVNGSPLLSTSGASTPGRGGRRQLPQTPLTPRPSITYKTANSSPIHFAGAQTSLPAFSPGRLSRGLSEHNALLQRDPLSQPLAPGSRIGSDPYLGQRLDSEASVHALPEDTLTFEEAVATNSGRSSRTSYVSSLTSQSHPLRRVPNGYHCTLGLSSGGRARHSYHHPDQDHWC
T3 sequence (Q02410 whole entry): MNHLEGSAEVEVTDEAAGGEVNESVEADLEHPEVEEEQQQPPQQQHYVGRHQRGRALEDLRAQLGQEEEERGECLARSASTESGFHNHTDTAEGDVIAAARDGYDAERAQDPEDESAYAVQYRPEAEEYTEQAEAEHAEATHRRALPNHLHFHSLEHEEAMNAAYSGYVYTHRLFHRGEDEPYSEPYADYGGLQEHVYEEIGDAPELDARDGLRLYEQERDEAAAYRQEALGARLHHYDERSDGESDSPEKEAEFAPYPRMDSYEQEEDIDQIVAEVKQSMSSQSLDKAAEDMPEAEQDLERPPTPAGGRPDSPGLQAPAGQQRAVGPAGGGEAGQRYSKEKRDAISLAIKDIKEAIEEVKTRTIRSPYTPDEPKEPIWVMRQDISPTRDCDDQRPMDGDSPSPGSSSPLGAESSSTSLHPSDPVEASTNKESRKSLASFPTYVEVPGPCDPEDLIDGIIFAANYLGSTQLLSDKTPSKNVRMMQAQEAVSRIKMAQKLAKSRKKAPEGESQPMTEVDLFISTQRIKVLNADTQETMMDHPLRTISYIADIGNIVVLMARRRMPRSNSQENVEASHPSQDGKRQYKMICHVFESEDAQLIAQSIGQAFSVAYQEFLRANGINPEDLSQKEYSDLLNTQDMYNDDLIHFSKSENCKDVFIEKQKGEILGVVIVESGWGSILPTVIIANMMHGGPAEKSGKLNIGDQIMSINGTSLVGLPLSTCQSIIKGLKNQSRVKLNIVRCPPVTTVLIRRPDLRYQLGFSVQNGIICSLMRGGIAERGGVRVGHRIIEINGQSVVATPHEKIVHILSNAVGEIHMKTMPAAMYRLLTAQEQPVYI
Chain of Cytochrome P450 2C9 (P11712 whole entry): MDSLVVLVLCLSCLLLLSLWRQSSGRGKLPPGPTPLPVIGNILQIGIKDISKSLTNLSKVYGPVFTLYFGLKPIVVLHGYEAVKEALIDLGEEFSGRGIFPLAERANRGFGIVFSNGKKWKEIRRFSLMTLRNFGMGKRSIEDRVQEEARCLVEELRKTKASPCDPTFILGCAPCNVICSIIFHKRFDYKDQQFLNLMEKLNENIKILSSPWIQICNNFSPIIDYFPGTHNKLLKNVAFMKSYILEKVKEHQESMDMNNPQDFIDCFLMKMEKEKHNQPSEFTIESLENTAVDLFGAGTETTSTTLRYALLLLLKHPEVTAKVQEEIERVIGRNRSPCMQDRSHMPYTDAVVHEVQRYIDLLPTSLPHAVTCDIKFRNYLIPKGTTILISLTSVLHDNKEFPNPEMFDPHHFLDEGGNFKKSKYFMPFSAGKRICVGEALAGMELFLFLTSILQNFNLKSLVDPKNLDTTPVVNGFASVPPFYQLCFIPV
Chain of Cytochrome P450 2C19 (P33261 whole entry): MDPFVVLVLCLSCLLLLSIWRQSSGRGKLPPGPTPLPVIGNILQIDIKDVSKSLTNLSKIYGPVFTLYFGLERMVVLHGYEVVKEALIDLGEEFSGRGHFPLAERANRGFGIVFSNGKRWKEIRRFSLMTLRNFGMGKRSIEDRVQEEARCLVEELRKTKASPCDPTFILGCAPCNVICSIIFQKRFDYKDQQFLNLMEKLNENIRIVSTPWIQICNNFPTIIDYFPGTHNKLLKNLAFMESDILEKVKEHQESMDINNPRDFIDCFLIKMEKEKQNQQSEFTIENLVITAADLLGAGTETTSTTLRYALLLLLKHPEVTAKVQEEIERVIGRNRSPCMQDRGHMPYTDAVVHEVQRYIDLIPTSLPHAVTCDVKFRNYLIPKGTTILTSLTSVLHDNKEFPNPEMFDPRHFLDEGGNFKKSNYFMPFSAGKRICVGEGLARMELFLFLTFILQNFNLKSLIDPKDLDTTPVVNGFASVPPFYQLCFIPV
Chain of Large T antigen (P03070 whole entry): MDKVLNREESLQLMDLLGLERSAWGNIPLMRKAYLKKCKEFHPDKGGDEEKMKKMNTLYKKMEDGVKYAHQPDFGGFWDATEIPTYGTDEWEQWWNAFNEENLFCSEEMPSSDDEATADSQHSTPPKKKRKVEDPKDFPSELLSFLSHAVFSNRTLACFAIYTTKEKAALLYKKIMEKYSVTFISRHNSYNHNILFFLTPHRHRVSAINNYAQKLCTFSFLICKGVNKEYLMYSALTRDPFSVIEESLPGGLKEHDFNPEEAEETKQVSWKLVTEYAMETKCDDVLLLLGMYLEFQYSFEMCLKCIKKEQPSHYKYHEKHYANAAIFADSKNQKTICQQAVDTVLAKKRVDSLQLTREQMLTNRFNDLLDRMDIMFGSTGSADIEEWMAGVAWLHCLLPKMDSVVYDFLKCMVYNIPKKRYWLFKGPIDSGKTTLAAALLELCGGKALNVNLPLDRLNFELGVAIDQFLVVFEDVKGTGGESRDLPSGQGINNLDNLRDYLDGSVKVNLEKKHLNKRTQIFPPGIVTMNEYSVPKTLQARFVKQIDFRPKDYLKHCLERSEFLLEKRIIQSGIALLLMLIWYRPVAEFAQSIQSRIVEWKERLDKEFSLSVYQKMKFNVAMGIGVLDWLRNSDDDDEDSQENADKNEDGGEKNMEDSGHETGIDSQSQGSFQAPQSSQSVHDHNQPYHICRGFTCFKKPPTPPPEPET

SMILES: CCCS(=O)(=O)N1CCCC(C(=O)N2CCC(Cc3ccccc3)CC2)C1 (stereo not given)
- EC50 [1]: > 195 µM (not active)
- Ki (fMet-Leu-Phe receptor): > 66.7 µM (inactive)

SMILES: COc1ccc(OC)c(/C=N/NC(=O)c2csc3ccccc23)c1
- AC50 (Cytochrome P450 2D6): 20 µM (inconclusive)
- AC50 (Cytochrome P450 2C9): inconclusive

SMILES: O=C(c1ccc(Cl)cc1)N(Cc1cccs1)C1CCS(=O)(=O)C1 (stereo not given)
- Ki (fMet-Leu-Phe receptor): > 66.7 µM (inactive)

SMILES: Cc1cc(O)c(C=O)c2c1C(=O)Oc1c(CO)c(O)c3c(c1O2)C(O)OC3=O (stereo not given) [SLAZINIC ACID]
- IC50 (Large T antigen): 17.5 µM (active)
- IC50 [2]: 12.5 µM (active)
- IC50 [3]: 14.8 µM (active)

SMILES: Cc1nn(C)cc1CNC(=O)CCC(=O)O
- AC50 (Cytochrome P450 2C9): inconclusive

SMILES: Cc1cccc(-n2cnc3c(c2=O)c2nc4ccccc4nc2n3Cc2ccco2)c1
- IC50 [2]: 0.871 µM (active)
- IC50 [3]: 2.16 µM (active)

SMILES: COc1ccc(C)cc1NC1=NC(C)(C)CS1
- EC50 [4]: 7.5 µM (active)

SMILES: COc1ccc(C#Cc2cccc(-c3nc(C(=O)N[C@@H]4CCN(Cc5ccccc5)C4)cc4c3[C@H](CCO)N([S+]([O-])C(C)(C)C)C4)c2)cc1OC (stereo not given in full)
- AC50 [5]: 4.45 µM (active)

SMILES: CC(C)c1ccc(OCC(=O)NNC(=O)c2cnccn2)cc1
- IC50 (cells [6]): 11.9 µM (active)

SMILES: O=C(N/N=C/C=C/c1ccccc1)c1ccncc1
- IC50 (cells [6]): 0.48 µM (active)

SMILES: CCOc1ccccc1NC(=O)Cn1nnc(C(=O)NCc2ccco2)c1N
- EC50 (BJ [7]): 2.66 µM (inconclusive)
- EC50 [8]: 2.65 µM (active)
- EC50 [9]: 0.134 µM (active)
- IC50 [10]: > 80 µM (inactive)
- EC50 (BJ [11]): 1.81 µM (inconclusive)
- EC50 [12]: 0.216 µM (active)
- EC50 (BJ [13]): 3.17 µM (active)
- EC50 [14]: 0.109 µM (active)

SMILES: CC1CCCC(NC(=O)CCn2c(=O)oc3ccccc32)C1C (stereo not given)
- AC50 (Cytochrome P450 2C19): 4.47 µM (inconclusive)
- AC50 (Cytochrome P450 2C9): inconclusive

SMILES: CCOC(=O)c1oc2cc(O)ccc2c(=O)c1-c1ccccc1OC
- Ki (fMet-Leu-Phe receptor): > 66.7 µM (inactive)

SMILES: CCOC(=O)Cc1cc(O)n2nc(C)c(-c3ccc(OC)cc3)c2n1
- Ki (fMet-Leu-Phe receptor): 18.3 µM (inactive)

SMILES: CC(C)COCC1CC2(CC(C)(c3csc(N)n3)OC2=O)C(=O)O1 (stereo not given)
- AC50 (Cytochrome P450 2C9): inconclusive

SMILES: COc1ccc(-c2cc(C(F)(F)F)nc(N3CCN(c4ccccc4)CC3)n2)cc1OC
- Ki (fMet-Leu-Phe receptor): > 66.7 µM (inactive)

SMILES: CC12CN3CC(C)(CN(C1)C3c1ccc(Cl)cc1Cl)C2O (stereo not given)
- EC50 [4]: 4.22 µM (active)

SMILES: CN(C)c1nc(N(C)C)nc(N(C)C)n1 [ALTRETAMINE]
- GI50 (P388): > 106 µM (inactive)
- GI50 (SN12K1): > 150 µM (inactive)
- GI50 (P388/ADR): > 136 µM (inactive)
- Ki (fMet-Leu-Phe receptor): > 66.7 µM (inactive)

SMILES: N#CC1=C(N)N=C(S)C(C(N)=O)C1c1ccc(Cl)cc1Cl (stereo not given)
- IC50 [2]: > 50 µM (inactive)
- IC50 [3]: 13.3 µM (active)

SMILES: COc1ccc(NC(=O)C2C3CCC(C3)C2C(=O)O)cc1OC (stereo not given)
- Ki (fMet-Leu-Phe receptor): > 66.7 µM (inactive)

SMILES: CCN(CC)S(=O)(=O)c1cc(NC(=O)CNc2cccc(S(=O)(=O)N3CCCC3)c2)ccc1C
- AC50 (INS1): 5.23 µM (active)
- AC50 [15]: > 70 µM (inactive)
- IC50 [10]: > 80 µM (inactive)
- AC50 [16]: 0.648 µM (active)
- AC50 [17]: 1.2 µM (active)

SMILES: C/C=C/c1ccc2c(c1)[C@@H]1[C@@H](CCN1S(=O)(=O)c1ccccc1C)[C@H](CO)N2
- AC50 [5]: 7.49 µM (active)

SMILES: O=C(N/N=C/c1ccncc1)c1ccc(NC(=O)c2ccc(Cl)cc2)cc1
- IC50 [2]: > 50 µM (inactive)
- IC50 [3]: > 56.8 µM (not active)

SMILES: C[C@@H]1CN([C@@H](C)CO)S(=O)(=O)c2ccc(C#Cc3ccncc3)cc2O[C@H]1CN(C)S(=O)(=O)c1ccc(F)cc1
- AC50 [5]: 2.95 µM (active)

SMILES: CN1CCN(CCCNC(=O)Nc2cccc3ccccc23)CC1
- Ki (fMet-Leu-Phe receptor): > 66.7 µM (inactive)

SMILES: Cc1cc(C(=O)N/N=C/c2cc(N=Nc3ccccc3)ccc2O)[nH]n1
- EC50 (cells [18]): 27.9 µM (active)
- EC50 (cells [19]): 11.5 µM (active)
- AC50 (INS1): 1.22 µM (active)
- IC50 [2]: > 50 µM (inactive)
- IC50 [3]: 10.9 µM (active)
- IC50 [20]: 2.22 µM (active)
- EC50 [9]: 10.7 µM (active)
- EC50 (Streptococcus): 1.92 µM (active)
- EC50 [21]: 2.04 µM (active)
- EC50 [12]: 13 µM (active)
- EC50 [14]: 9.08 µM (active)

SMILES: CN(C)c1ncc2ncc(=O)n(CCC#N)c2n1
- AC50 (Cytochrome P450 2C9): inconclusive

SMILES: COCC(=O)N1CC2(C1)CN(Cc1ccccc1F)[C@H](CO)c1[nH]c3cc(OC)ccc3c12
- AC50 [5]: 11.5 µM (active)
